This is an account of results in patent US10472356B2, “Bicyclic ketone sulfonamide compounds” (AMGEN INC., priority 2015, dated 2019).

By IC50 is commonly meant the concentration that gives 50% inhibition.

Holding throughout (type): cell-based
The target of assay [1] is T1, human Nav1.7 (Homo sapiens, UniProt Q15858).
T1 construct: expressed in transfected cells; host or cells: HEK293
The assay is described as follows: Nav 1.7 In Vitro PatchXpress (PX) Assay. To be noted: HEK 293 cells stably transfected with human Nav1.7; PatchXpress whole cell voltage clamp; partially inactivated state (holding potential yielding 20 to 50% inactivation); read-out: hNav1.7 PX IC50. In a few lines: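 Whole-cell voltage clamp on HEK 293 cells stably expressing human Nav1.7 (automated patch), holding potential giving 20–50% inactivation; 20 ms pulses to −10 mV at 0.1 Hz. Single compound concentration applied 3 min, peak current inhibition measured; IC50 fitted from 3–5 cells per concentration.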

The target in assay [2] is T1, human Nav1.7. The assay is described as follows: Nav 1.7 IWQ In Vitro Assay (IonWorks Quattro). To be noted: HEK293 cells stably transfected with human Nav 1.7; IonWorks Quattro population patch-clamp; 26th pulse to −20 mV, 5 Hz; cells unclamped 5 to 8 minutes with compound; read-out: hNav1.7 IWQ IC50. How it is done:
Nav 1.7 or Nav 1.5 IWQ In Vitro Assay
HEK293 cells stably transfected with either human Nav 1.7 or human Nav 1.5 were recorded in population patch-clamp mode with the IonWorks® Quattro automated electrophysiology system (Molecular Devices, LLC, Sunnyvale, Calif.). Cells were voltage clamped to −110 mV for three seconds (Nav 1.7) or half a second (Nav 1.5) and sodium currents were elicited by a train of 26 depolarizations of 150 msec duration to −20 mV (Nav 1.7) or 0 mV (Nav 1.5) at a frequency of 5 Hz. Cells were then left unclamped for a period of 5 to 8 minutes while a single concentration of test compound was added. Following this compound incubation period, cells were then reclamped to −110 mV for three seconds (Nav1.7) or half a second (Nav1.5) to recover unbound channels and put through the same 26 pulse voltage protocol as above. Peak inward current during the 26th pulse to −20 mV (Nav 1.7) or 0 mV (Nav 1.5) in the presence of compound was divided by the peak inward current evoked by the 26th pulse to −20 mV (Nav1.7) or 0 mV (Nav1.5) in the absence of compound to determine percent inhibition. Concentration-response curves of percent.
(The patch-clamp technique gives a direct electrical read-out from membranes.)

Assay [3] deals with T1, human Nav1.7. The assay is described as follows: Nav 1.7 IWB In Vitro Assay (IonWorks Barracuda). To be noted: HEK293 cells stably transfected with human Nav 1.7; IonWorks Barracuda population patch-clamp; cells clamped to −20 mV for 4 minutes with compound; 26th pulse; read-out: hNav1.7 IWB IC50. In a few lines:
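Population patch clamp of HEK293 cells stably expressing human Nav 1.7: 26 pulses to −20 mV (150 ms, 5 Hz) from −110 mV, then 4 min at −20 mV with compound, 3 s recovery at −110 mV and the train repeated. % inhibition of 26th-pulse peak current vs no compound; IC50 from concentration-response curves.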

T1 sequence (Q15858 whole entry): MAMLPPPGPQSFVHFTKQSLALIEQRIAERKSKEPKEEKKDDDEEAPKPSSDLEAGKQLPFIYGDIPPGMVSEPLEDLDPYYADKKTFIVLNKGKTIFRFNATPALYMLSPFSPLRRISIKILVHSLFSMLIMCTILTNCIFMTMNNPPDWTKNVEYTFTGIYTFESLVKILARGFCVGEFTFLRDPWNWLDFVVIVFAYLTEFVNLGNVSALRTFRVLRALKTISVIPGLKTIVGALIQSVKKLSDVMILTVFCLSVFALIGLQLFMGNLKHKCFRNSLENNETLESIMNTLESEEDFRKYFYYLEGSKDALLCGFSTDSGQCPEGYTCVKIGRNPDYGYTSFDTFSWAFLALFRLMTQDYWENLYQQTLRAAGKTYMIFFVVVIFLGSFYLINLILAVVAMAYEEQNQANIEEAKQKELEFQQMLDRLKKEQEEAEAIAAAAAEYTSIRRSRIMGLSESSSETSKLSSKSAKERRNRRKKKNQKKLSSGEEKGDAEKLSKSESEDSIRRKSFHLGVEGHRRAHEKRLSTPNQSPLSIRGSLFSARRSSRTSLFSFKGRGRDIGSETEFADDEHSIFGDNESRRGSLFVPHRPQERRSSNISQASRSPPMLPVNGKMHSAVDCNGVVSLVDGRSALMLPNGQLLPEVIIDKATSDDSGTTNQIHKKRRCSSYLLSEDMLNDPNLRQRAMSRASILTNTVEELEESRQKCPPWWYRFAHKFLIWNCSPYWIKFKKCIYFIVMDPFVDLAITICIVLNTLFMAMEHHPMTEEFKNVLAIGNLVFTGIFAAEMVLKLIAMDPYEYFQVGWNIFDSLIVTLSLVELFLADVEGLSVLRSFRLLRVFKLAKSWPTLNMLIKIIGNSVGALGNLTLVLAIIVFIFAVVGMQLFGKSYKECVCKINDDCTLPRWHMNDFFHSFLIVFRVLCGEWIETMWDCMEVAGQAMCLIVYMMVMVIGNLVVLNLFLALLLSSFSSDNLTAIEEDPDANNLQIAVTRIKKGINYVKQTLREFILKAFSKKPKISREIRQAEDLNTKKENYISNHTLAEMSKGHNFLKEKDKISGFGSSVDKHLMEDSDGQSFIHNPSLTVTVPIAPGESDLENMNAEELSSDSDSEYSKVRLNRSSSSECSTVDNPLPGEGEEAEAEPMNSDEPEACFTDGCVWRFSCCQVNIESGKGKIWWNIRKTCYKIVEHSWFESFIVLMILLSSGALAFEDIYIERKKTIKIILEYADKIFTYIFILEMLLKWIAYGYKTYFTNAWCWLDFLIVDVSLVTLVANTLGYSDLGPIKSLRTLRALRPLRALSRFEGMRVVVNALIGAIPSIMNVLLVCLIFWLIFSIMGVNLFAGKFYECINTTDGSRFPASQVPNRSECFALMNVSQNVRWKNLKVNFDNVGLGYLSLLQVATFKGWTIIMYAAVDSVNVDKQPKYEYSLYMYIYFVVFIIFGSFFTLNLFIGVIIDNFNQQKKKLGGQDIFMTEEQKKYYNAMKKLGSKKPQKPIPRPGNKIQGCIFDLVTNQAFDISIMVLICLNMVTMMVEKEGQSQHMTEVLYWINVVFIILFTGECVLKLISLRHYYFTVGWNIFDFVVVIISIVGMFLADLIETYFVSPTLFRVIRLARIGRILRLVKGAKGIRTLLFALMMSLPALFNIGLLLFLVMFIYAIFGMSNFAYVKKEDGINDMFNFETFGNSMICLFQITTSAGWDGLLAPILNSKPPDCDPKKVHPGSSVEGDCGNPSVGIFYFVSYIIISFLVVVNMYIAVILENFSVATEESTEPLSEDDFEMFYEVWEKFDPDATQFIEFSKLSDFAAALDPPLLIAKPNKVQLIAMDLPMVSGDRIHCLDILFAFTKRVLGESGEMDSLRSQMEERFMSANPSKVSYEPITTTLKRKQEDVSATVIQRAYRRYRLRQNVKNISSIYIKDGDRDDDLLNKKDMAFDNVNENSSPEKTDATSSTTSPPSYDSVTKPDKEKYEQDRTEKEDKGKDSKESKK

As for `COc1cc(C#CC2CCCC2)c(F)cc1-n1c2c(ccc1=O)CN(S(=O)(=O)Nc1ccon1)CC2` (racemic) [Example 34-(Rac), (Rac)-1-(4-(cyclopentylethynyl)-5-fluoro-2-methoxyphenyl)-N-3-isoxazolyl-2-oxo-1,5,7,8-tetrahydro-1,6-naphthyridine-6(2H)-sulfonamide], the IC50 on human Nav1.7 [1] was 408 nM; on human Nav1.7 [2], 88.8 nM; at human Nav1.7 [3] it was 48.5 nM.

For `COc1cc(-c2cc(F)cc(Cl)c2)c(F)cc1-n1c2c(ccc1=O)CN(S(=O)(=O)Nc1ccccn1)CC2` (single isomer, unassigned) [Example 11-P, P-1-(3′-chloro-2,5′-difluoro-5-methoxy-4-biphenylyl)-2-oxo-N-2-pyridinyl-1,5,7,8-tetrahydro-1,6-naphthyridine-6(2H)-sulfonamide], the results for the IC50 at human Nav1.7 [1], on human Nav1.7 [2] and on human Nav1.7 [3] were 166 nM, 54 nM and 55.3 nM, respectively.

Regarding `COc1cc(-c2ccc(F)c(C(F)(F)F)c2)c(F)cc1-n1c2c(ccc1=O)CN(S(=O)(=O)Nc1cccnn1)CC2` [Example 71, P-1-(2,4′-difluoro-5-methoxy-3′-(trifluoromethyl)-[1,1′-biphenyl]-4-yl)-2-oxo-N-(pyridazin-3-yl)-1,2,7,8-tetrahydro-1,6-naphthyridine-6(5H)-sulfonamide], the IC50 on human Nav1.7 [1] is 29.4 nM; on human Nav1.7 [2], 2.8 nM; at human Nav1.7 [3], 6.9 nM.

Regarding `COc1cc(-c2ccc(Cl)c(C#N)c2)c(F)cc1-n1c2c(ccc1=O)CN(S(=O)(=O)Nc1ccon1)CC2` (racemic) [Example 35, (Rac)-1-(4′-chloro-3′-cyano-2-fluoro-5-methoxy-4-biphenylyl)-N-3-isoxazolyl-2-oxo-1,5,7,8-tetrahydro-1,6-naphthyridine-6(2H)-sulfonamide], the IC50 at human Nav1.7 [1] was 177 nM; at human Nav1.7 [2], 4 nM; on human Nav1.7 [3], 18 nM.

As to `COc1cc(-c2cccc(C(F)(F)F)c2)c(F)cc1-n1c2c(ccc1=O)CN(S(=O)(=O)Nc1ccon1)CC2` (single isomer, unassigned) [Example 16-P, P-1-(2-fluoro-5-methoxy-3′-(trifluoromethyl)-4-biphenylyl)-N-3-isoxazolyl-2-oxo-1,5,7,8-tetrahydro-1,6-naphthyridine-6(2H)-sulfonamide], the IC50 at human Nav1.7 [1] was 15.8 nM; at human Nav1.7 [2] it was 2.6 nM; on human Nav1.7 [3], 2.4 nM.

For the compound `COc1cc(-c2ccc(Cl)c(C)c2)c(F)cc1-n1c2c(ccc1=O)CN(S(=O)(=O)Nc1ccon1)CC2` (single isomer, unassigned) [Example 24-P, P-1-(4′-chloro-2-fluoro-5-methoxy-3′-methyl-4-biphenylyl)-N-3-isoxazolyl-2-oxo-1,5,7,8-tetrahydro-1,6-naphthyridine-6(2H)-sulfonamide], the IC50 on human Nav1.7 [1] stood at 20.9 nM; at human Nav1.7 [2] it was 5.2 nM; on human Nav1.7 [3], 3.8 nM.

Turning to `COc1cc(-c2cccc(OC(F)F)c2)c(F)cc1-n1c2c(ccc1=O)CN(S(=O)(=O)Nc1ccon1)CC2` (single isomer, unassigned) [Example 19-P, P-1-(3′-(difluoromethoxy)-2-fluoro-5-methoxy-4-biphenylyl)-N-3-isoxazolyl-2-oxo-1,5,7,8-tetrahydro-1,6-naphthyridine-6(2H)-sulfonamide], the IC50 turned out to be 33.3 nM at human Nav1.7 [1], 5 nM on human Nav1.7 [2] and 7.4 nM at human Nav1.7 [3].

Turning to `COc1cc(-c2cccc(C(F)(F)F)c2)c(F)cc1-n1c2c(ccc1=O)CN(S(=O)(=O)Nc1ccon1)CC2` (racemic) [Example 16-(Rac), (Rac)-1-(2-fluoro-5-methoxy-3′-(trifluoromethyl)-4-biphenylyl)-N-3-isoxazolyl-2-oxo-1,5,7,8-tetrahydro-1,6-naphthyridine-6(2H)-sulfonamide], the IC50 came to 38.8 nM at human Nav1.7 [1], 4.7 nM on human Nav1.7 [2] and 5.3 nM at human Nav1.7 [3].

Regarding `COc1cc(-c2ccc(Cl)c(C)c2)c(F)cc1-n1c2c(ccc1=O)CN(S(=O)(=O)Nc1cccnn1)CC2` (single isomer, unassigned) [Example 33-P, P-1-(4′-chloro-2-fluoro-5-methoxy-3′-methyl-4-biphenylyl)-2-oxo-N-3-pyridazinyl-1,5,7,8-tetrahydro-1,6-naphthyridine-6(2H)-sulfonamide], the IC50 is 21.3 nM at human Nav1.7 [1], 14.7 nM at human Nav1.7 [2] and 12.6 nM on human Nav1.7 [3].

In the case of `COc1nc(-c2cc(F)cc(Cl)c2)c(F)cc1-n1c2c(ccc1=O)CN(S(=O)(=O)Nc1cccnn1)CC2` (racemic) [Example 37, (Rac)-1-(6-(3-chloro-5-fluorophenyl)-5-fluoro-2-methoxy-3-pyridinyl)-2-oxo-N-3-pyridazinyl-1,5,7,8-tetrahydro-1,6-naphthyridine-6(2H)-sulfonamide], the IC50 on human Nav1.7 [1] turned out to be 1030 nM; on human Nav1.7 [2] it was 137 nM; at human Nav1.7 [3], 269 nM.

On to `COc1cc(-c2cc(F)cc(Cl)c2)c(F)cc1-n1c2c(ccc1=O)CN(S(=O)(=O)Nc1ccon1)CC2` (single isomer, unassigned) [Example 18-P, P-1-(3′-chloro-2,5′-difluoro-5-methoxy-4-biphenylyl)-N-3-isoxazolyl-2-oxo-1,5,7,8-tetrahydro-1,6-naphthyridine-6(2H)-sulfonamide], for which the half-maximal inhibitory concentration (IC50) at human Nav1.7 [1] came to 17.5 nM; on human Nav1.7 [2], 2.9 nM; at human Nav1.7 [3], 3.9 nM.

Consider `COc1cc(-c2ccc(Cl)c(C)c2)c(F)cc1-n1c2c(ccc1=O)CN(S(=O)(=O)Nc1nccs1)CC2` (racemic) [Example 39, (Rac)-1-(4′-chloro-2-fluoro-5-methoxy-3′-methyl-4-biphenylyl)-2-oxo-N-1,3-thiazol-2-yl-1,5,7,8-tetrahydro-1,6-naphthyridine-6(2H)-sulfonamide], for which the IC50 was 35.1 nM on human Nav1.7 [1], 15.2 nM at human Nav1.7 [2] and 37.8 nM on human Nav1.7 [3].

Turning to `COc1cc(-c2cc(F)cc(F)c2)c(F)cc1-n1c2c(ccc1=O)CN(S(=O)(=O)Nc1cccc(F)n1)CC2` (single isomer, unassigned) [Example 14-P, P-N-(6-fluoro-2-pyridinyl)-2-oxo-1-(2,3′,5′-trifluoro-5-methoxy-4-biphenylyl)-1,5,7,8-tetrahydro-1,6-naphthyridine-6(2H)-sulfonamide], the IC50 on human Nav1.7 [1] came out at 103 nM; at human Nav1.7 [2], 26 nM; on human Nav1.7 [3] it was 12.4 nM.

On to `COc1cc(-c2cc(Cl)ccc2C)c(F)cc1-n1c2c(ccc1=O)CN(S(=O)(=O)Nc1ccon1)CC2` (single isomer, unassigned) [Example 9-P, P-1-(5′-chloro-2-fluoro-5-methoxy-2′-methyl-4-biphenylyl)-N-3-isoxazolyl-2-oxo-1,5,7,8-tetrahydro-1,6-naphthyridine-6(2H)-sulfonamide], for which the IC50 on human Nav1.7 [1] turned out to be 18 nM; at human Nav1.7 [2], 2.1 nM; at human Nav1.7 [3], 3.1 nM.

`COc1cc(-c2cc(F)cc(Cl)c2)c(F)cc1-n1c2c(ccc1=O)CN(S(=O)(=O)Nc1cccnn1)CC2` (single isomer, unassigned) [Example 38-P, P-1-(3′-chloro-2,5′-difluoro-5-methoxy-4-biphenylyl)-2-oxo-N-3-pyridazinyl-1,5,7,8-tetrahydro-1,6-naphthyridine-6(2H)-sulfonamide]: the IC50 on human Nav1.7 [1] came to 56.1 nM; at human Nav1.7 [2] it was 6.7 nM; at human Nav1.7 [3], 10.9 nM.

`COc1cc(-c2cc(F)cc(F)c2)c(F)cc1-n1c2c(ccc1=O)CN(S(=O)(=O)Nc1ccon1)CC2` (single isomer, unassigned) [Example 25-P, P-N-3-isoxazolyl-2-oxo-1-(2,3′,5′-trifluoro-5-methoxy-4-biphenylyl)-1,5,7,8-tetrahydro-1,6-naphthyridine-6(2H)-sulfonamide]: the IC50 on human Nav1.7 [1] was 176 nM; on human Nav1.7 [2], 7.2 nM.

As for `COc1cc(-c2ccc(Cl)c(C)c2)c(F)cc1-n1c2c(ccc1=O)CN(S(=O)(=O)Nc1ccon1)CC2` (racemic) [Example 24-(Rac), (Rac)-1-(4′-chloro-2-fluoro-5-methoxy-3′-methyl-4-biphenylyl)-N-3-isoxazolyl-2-oxo-1,5,7,8-tetrahydro-1,6-naphthyridine-6(2H)-sulfonamide], the values for the concentration for half-maximal inhibition (IC50) on human Nav1.7 [1] and at human Nav1.7 [2] were 73.7 nM and 6.7 nM, respectively.
